Reference: US11078170B2 (Assembly Biosciences, Inc., priority 2017, dated 2021)

Test system: HBV viral production from HepAD38 cells
Assay: Activity of test compounds on viral production from HepAD38 cells (viral load by qPCR of HBV core sequence in supernatant)
Assay type: cell-based
Settings: Hepatitis B virus, 120 h, 5 days incubation, HBV DNA in supernatant by qPCR, top concentration 10 μM, read-out: Viral Load EC50 Activity range
Method in brief: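 EC50 and CC50 come from four-parameter fits of supernatant viral load and CellTiter-Glo viability, respectively. Viral load was measured by core-region TaqMan qPCR against HBV DNA standards and compared with DMSO controls. Tet-free HepAD38 cells (50,000/well, 2% FBS) were exposed to compound, highest 10 μM, for 5 days at 37° C.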

SMILES | EC50 [nM]
CN1[C@H](C(=O)Nc2ccc(F)c(Cl)c2)C[C@H](c2cccc(F)c2)NS1(=O)=O (relative stereo) [HBV-CSU-231-ISO-I, Cis-N-(3-Chloro-4-fluorophenyl)-5-(3-fluorophenyl)-2-methyl-1,2,6-thiadiazinane-3-carboxamide 1,1-dioxide] | < 1000
[2H]C1[C@]([2H])(C(=O)Nc2ccc(F)c(Cl)c2)N(C)S(=O)(=O)N[C@]1([2H])c1ccc(Br)s1 (stereo in doubt) [HBV-CSU-371-ISO-II, Cis-5-(5-Bromothiophen-2-yl)-N-(3-chloro-4-fluorophenyl)-2-methyl-1,2,6-thiadiazinane-3,4,5-d3-3-carboxamide 1,1-dioxide] | 1000 to 5000
CC(C)(C)OCCN1[C@@H](C(=O)Nc2ccc(F)c(Cl)c2)C[C@@H](c2nccs2)NS1(=O)=O (relative stereo) [HBV-CSU-071-ISO-II, Cis-2-(2-(tert-Butoxy)ethyl)-N-(3-chloro-4-fluorophenyl)-5-(thiazol-2-yl)-1,2,6-thiadiazinane-3-carboxamide 1,1-dioxide] | 1000 to 5000
CN1C(C(=O)Nc2ccc(F)c(Cl)c2)CC(c2ncc(-c3ccc(F)cn3)s2)NS1(=O)=O (racemic) [HBV-CSU-252, Cis-N-(3-Chloro-4-fluorophenyl)-5-(5-(5-fluoropyridin-2-yl)thiazol-2-yl)-2-methyl-1,2,6-thiadiazinane-3-carboxamide 1,1-dioxide] | < 1000
CN1C(C(=O)Nc2ccc(Cl)cc2)CC(c2cccs2)NS1(=O)=O (stereo not drawn) [HBV-CSU-014, Cis-N-(4-chlorophenyl)-2-methyl-5-(thiophen-2-yl)-1,2,6-thiadiazinane-3-carboxamide 1,1-dioxide] | 1000 to 5000
CN1[C@@H](C(=O)Nc2ccc(F)c(Cl)c2)C[C@@H](c2ncc(-c3c[nH]cn3)s2)NS1(=O)=O (stereo in doubt) [HBV-CSU-333-ISO-II, 5-(5-(1H-imidazol-4-yl)thiazol-2-yl)-N-(3-chloro-4-fluorophenyl)-2-methyl-1,2,6-thiadiazinane-3-carboxamide 1,1-dioxide] | 1000 to 5000
O=C(Nc1ccc(F)c(Cl)c1)[C@H]1C[C@@H](c2nccs2)NS(=O)(=O)N1CCO [HBV-CSU-097-ISO-I, Cis-N-(3-Chloro-4-fluorophenyl)-2-(2-hydroxyethyl)-5-(thiazol-2-yl)-1,2,6-thiadiazinane-3-carboxamide 1,1-dioxide] | > 5000
Cc1cc([C@@H]2C[C@H](C(=O)Nc3ccc(F)c(Cl)c3)N(C)S(=O)(=O)N2)sc1-c1cnn(C)c1 [HBV-CSU-300-ISO-II, Cis-N-(3-Chloro-4-fluorophenyl)-5-(4-methyl-5-(1-methyl-1H-pyrazol-4-yl)thiophen-2-yl)-2-methyl-1,2,6-thiadiazinane-3-carboxamide 1,1-dioxide] | > 5000
COc1ccc(-c2ccc([C@H]3C[C@@H](C(=O)Nc4ccc(F)c(Cl)c4)N(C)S(=O)(=O)N3)s2)cc1 [HBV-CSU-240-ISO-I] | < 1000
CN1[C@@H](C(=O)Nc2ccc(F)c(Br)c2)C[C@@H](c2ccc(F)cc2)NS1(=O)=O [HBV-CSU-211-ISO-II, Cis-N-(3-Bromo-4-fluorophenyl)-5-(4-fluorophenyl)-2-methyl-1,2,6-thiadiazinane-3-carboxamide 1,1-dioxide] | > 5000
CN1[C@@H](C(=O)Nc2ccc(F)c(Cl)c2)C[C@@H](c2cc(-c3ncn(C)n3)cs2)NS1(=O)=O [HBV-CSU-326-ISO-II, Cis-N-(3-chloro-4-fluorophenyl)-2-methyl-5-(4-(1-methyl-1H-1,2,4-triazol-3-yl)thiophen-2-yl)-1,2,6-thiadiazinane-3-carboxamide 1,1-dioxide] | > 5000
CN(C)CCCOc1cccc(C2CC(C(=O)Nc3ccc(F)c(Cl)c3)N(C)S(=O)(=O)N2)c1 (stereo not drawn) [HBV-CSU-209, Cis-N-(3-Chloro-4-fluorophenyl)-5-(3-(3-(dimethylamino)propoxy)phenyl)-2-methyl-1,2,6-thiadiazinane-3-carboxamide 1,1-dioxide] | < 1000
CN(C)CCN1[C@@H](c2cccs2)C[C@@H](C(=O)Nc2ccc(F)c(Cl)c2)N(C)S1(=O)=O (relative stereo) [HBV-CSU-043-ISO-I, Cis-N-(3-chloro-4-fluorophenyl)-6-(2-(dimethylamino)ethyl)-2-methyl-5-(thiophen-2-yl)-1,2,6-thiadiazinane-3-carboxamide 1,1-dioxide] | > 5000
CN1[C@@H](C(=O)Nc2ccc(F)c(Cl)c2)C[C@@H](c2ccc(-c3ccc(F)cc3)s2)NS1(=O)=O [HBV-CSU-238-ISO-II] | 1000 to 5000
CN1[C@H](C(=O)Nc2ccc(F)c(Cl)c2)C[C@H](c2ccc(-c3ccccc3)s2)NS1(=O)=O [HBV-CSU-116-ISO-I, Cis-N-(3-chloro-4-fluorophenyl)-2-methyl-5-(5-phenylthiophen-2-yl)-1,2,6-thiadiazinane-3-carboxamide 1,1-dioxide] | < 1000
CN1[C@@H](C(=O)Nc2ccc(F)c(Cl)c2)C[C@@H](c2cc(-c3ccnn3C)cs2)NS1(=O)=O [HBV-CSU-289-ISO-II, Cis-N-(3-chloro-4-fluorophenyl)-2-methyl-5-(4-(1-methyl-1H-pyrazol-5-yl)thiophen-2-yl)-1,2,6-thiadiazinane-3-carboxamide 1,1-dioxide] | 1000 to 5000
CN1[C@@H](C(=O)Nc2ccc(F)c(Cl)c2)C[C@@H](c2cc(Br)cs2)NS1(=O)=O [HBV-CSU-146-ISO-II, 5-(4-Bromothiophen-2-yl)-N-(3-chloro-4-fluorophenyl)-2-methyl-1,2,6-thiadiazinane-3-carboxamide 1,1-dioxide] | > 5000
CN1[C@@H](C(=O)Nc2ccc(F)c(Cl)c2)C[C@@H](c2ccc(-c3ccccn3)s2)NS1(=O)=O [HBV-CSU-160-ISO-II, Cis-N-(3-chloro-4-fluorophenyl)-2-methyl-5-(5-(pyridin-2-yl)thiophen-2-yl)-1,2,6-thiadiazinane-3-carboxamide 1,1-dioxide] | 1000 to 5000
Cc1c(-c2ccc(C3CC(C(=O)Nc4ccc(F)c(Cl)c4)N(C)S(=O)(=O)N3)s2)cnn1C (racemic) [HBV-CSU-312, Cis-N-(3-chloro-4-fluorophenyl)-5-(5-(1,5-dimethyl-1H-pyrazol-4-yl)thiophen-2-yl)-2-methyl-1,2,6-thiadiazinane-3-carboxamide 1,1-dioxide] | < 1000
CN1[C@@H](C(=O)Nc2ccc(F)c(Cl)c2)C[C@@H](c2cc(-c3ccc(C#N)c(F)c3)cs2)NS1(=O)=O [HBV-CSU-164-ISO-II, Cis-N-(3-chloro-4-fluorophenyl)-5-(4-(4-cyano-3-fluorophenyl)thiophen-2-yl)-2-methyl-1,2,6-thiadiazinane-3-carboxamide 1,1-dioxide] | > 5000
CN1[C@H](C(=O)Nc2ccc(F)c(Cl)c2)C[C@H](c2ccc(-c3ccnn3C)s2)NS1(=O)=O [HBV-CSU-271-ISO-I, Cis-N-(3-chloro-4-fluorophenyl)-2-methyl-5-(5-(1-methyl-1H-pyrazol-5-yl)thiophen-2-yl)-1,2,6-thiadiazinane-3-carboxamide 1,1-dioxide] | < 1000
[2H]C1[C@]([2H])(C(=O)Nc2ccc(F)c(Cl)c2)N(C([2H])([2H])[2H])S(=O)(=O)N[C@]1([2H])c1ncc(-c2cn(C)cn2)s1 (stereo in doubt) [HBV-CSU-340-ISO-II, Cis-N-(3-Chloro-4-fluorophenyl)-2-(methyl-d3)-5-(5-(1-methyl-1H-imidazol-4-yl)thiazol-2-yl)-1,2,6-thiadiazinane-3,4,5-d3-3-carboxamide 1,1-dioxide] | 1000 to 5000
Cc1cnc(C2CC(C(=O)Nc3ccc(F)c(Cl)c3)N(C)S(=O)(=O)N2)s1 (stereo not drawn) | < 1000
CN1[C@H](C(=O)Nc2ccc(F)c(Cl)c2)C[C@@H](c2ncc(Br)s2)NS1(=O)=O [HBV-CSU-122-Trans-ISO-II, (3S,5S)-5-(5-bromothiazol-2-yl)-N-(3-chloro-4-fluorophenyl)-2-methyl-1,2,6-thiadiazinane-3-carboxamide 1,1-dioxide] | 1000 to 5000
CN1[C@H](C(=O)Nc2ccc(F)c(Cl)c2)C[C@H](c2cc(-c3ncnn3C)cs2)NS1(=O)=O [HBV-CSU-327-ISO-I, Cis-N-(3-Chloro-4-fluorophenyl)-2-methyl-5-(4-(1-methyl-1H-1,2,4-triazol-5-yl)thiophen-2-yl)-1,2,6-thiadiazinane-3-carboxamide 1,1-dioxide] | < 1000
CN1[C@H](C(=O)Nc2cc(F)c(F)c(F)c2)C[C@H](c2ccc(F)cc2)NS1(=O)=O [HBV-CSU-212-ISO-I, Cis-5-(4-Fluorophenyl)-2-methyl-N-(3,4,5-trifluorophenyl)-1,2,6-thiadiazinane-3-carboxamide 1,1-dioxide] | < 1000
CN1C(C(=O)Nc2ccc(F)c(Cl)c2)CC(c2nc(Br)cs2)NS1(=O)=O (racemic) [HBV-CSU-150, Cis-5-(4-Bromothiazol-2-yl)-N-(3-chloro-4-fluorophenyl)-2-methyl-1,2,6-thiadiazinane-3-carboxamide 1,1-dioxide] | < 1000
CN1C(C(=O)Nc2cc(F)c(F)c(F)c2)CC(c2cccs2)NS1(=O)=O (racemic) [HBV-CSU-036, Cis-2-Methyl-5-(thiophen-2-yl)-N-(3,4,5-trifluorophenyl)-1,2,6-thiadiazinane-3-carboxamide 1,1-dioxide] | < 1000
CN1[C@H](C(=O)Nc2ccc(F)c(Cl)c2)C[C@H](c2ccc(OCC(=O)O)cc2)NS1(=O)=O (relative stereo) [HBV-CSU-216-ISO-I, Cis-2-(4-(5-((3-Chloro-4-fluorophenyl)carbamoyl)-6-methyl-1,1-dioxido-1,2,6-thiadiazinan-3-yl)phenoxy)acetic acid] | 1000 to 5000
Cc1ccc([C@@H]2C[C@H](C(=O)Nc3ccc(F)c(Cl)c3)N(C)S(=O)(=O)N2)s1 [HBV-CSU-115-ISO-II, Cis-N-(3-chloro-4-fluorophenyl)-2-methyl-5-(5-methylthiophen-2-yl)-1,2,6-thiadiazinane-3-carboxamide 1,1-dioxide] | > 5000
